Legend:
H1299 p53 R273H = test: Cell Proliferation Assay (CellTiter-Glo, CTG), H1299 p53 R273H (NClH1299-inducible p53 R273H); type: cell-based; settings: Homo sapiens, NCI-H1299, 120 h, NClH1299-inducible p53 R273H cells, 5 days, CellTiter-Glo
Outline: (§1)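 Cells seeded at 250-500 per well and exposed to compound for 5 days. Viability read by CellTiter-Glo luminescence after 10 min at room temperature; IC50 calculated. H1299 lines carry Tet-One inducible p53 mutant constructs introduced by lentiviral transduction.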

p53 Y220C = p53 Y220C (Homo sapiens, UniProt P04637, Y220C); test: Luciferase Reporter Assay (Luc), p53 response element, NClH1299 cells with inducible p53 Y220C; type: cell-based; settings: luciferase reporter, NClH1299 inducible p53 Y220C, 6 hour; for AC50: read-out: Luc P53 Y220C AC50
Outline: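 24 h dox pre-induction (0.5 ug/mL), then 6 h compound; One-Glo luminescent read.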

H1299 p53 Y220C = test: Cell Proliferation Assay (CellTiter-Glo, CTG), H1299 p53 Y220C (NClH1299-inducible p53 Y220C); type: cell-based; settings: Homo sapiens, NCI-H1299, 120 h, NClH1299-inducible p53 Y220C cells, 5 days, CellTiter-Glo
Outline: as §1

NUGC3 p53 Y220C = test: Cell Proliferation Assay (CellTiter-Glo, CTG), NUGC3 p53 Y220C; type: cell-based; settings: Homo sapiens, NUGC-3, 120 h, NUGC3 cells, 5 days, CellTiter-Glo
Outline: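 NClH1299 lines stably transduced with Tet-inducible p53 Y220C or R273H, plus NUGC3, were treated with compound for 5 days at 250-500 cells/well. IC50 derived from CellTiter-Glo luminescent signal after 10 min room-temperature incubation.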

[1] = molecular target: T1, p53 Y220C mutant protein (amino acid residues 94-293) (Homo sapiens, UniProt P04637, Y220C); test: Surface Plasmon Resonance (SPR) assay, Kd_kinetic; type: binding; settings: SPR; p53 Y220C; read-out: SPR P53 Y220C KD kinetic
T1 construct: p53 Y220C mutant protein (amino acid residues 94-293)
Outline: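 Binding measured by SPR on a Biacore 8K in running buffer of 50 mM Tris pH 7.5, 100 mM NaCl, 1 mM DTT, 0.01% Brij35, 0.05% Tween-20, 1% DMSO.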

T1 sequence (P04637 94-293, stated change not applied): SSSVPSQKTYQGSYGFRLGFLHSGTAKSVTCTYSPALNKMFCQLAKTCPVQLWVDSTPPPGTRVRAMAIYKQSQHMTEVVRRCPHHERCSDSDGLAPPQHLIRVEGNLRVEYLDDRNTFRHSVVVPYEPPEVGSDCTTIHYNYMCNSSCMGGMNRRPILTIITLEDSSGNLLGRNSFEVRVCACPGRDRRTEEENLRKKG

## COc1cc(P(C)(C)=O)ccc1NCC#Cc1cn2c(N[C@@H]3CCN(C)C[C@@H]3F)cccc2c1SC(F)F [Example 415]
H1299 p53 R273H
  IC50: ≥ 10000 nM
p53 Y220C
  AC50: < 750 nM
  Emax: 80 to 90%
H1299 p53 Y220C
  IC50: 750 to 1500 nM
NUGC3 p53 Y220C
  IC50: 750 to 1500 nM
[1]
  Kd: < 10 nM

## COc1cc(C(=O)NC[C@@H](C)O)ccc1NCC#Cc1cc2c(N[C@@H]3CCN(C)C[C@@H]3F)cccn2c1SC(F)(F)F [Example 416, 4-{[3-(8-{[(3S,4R)-3-fluoro-1-methylpiperidin-4-yl]amino}-3-[(trifluoromethyl)sulfanyl]indolizin-2-yl)prop-2-yn-1-yl]amino}-N-[(2R)-2-hydroxypropyl]-3-methoxybenzamide]
H1299 p53 R273H
  IC50: 5000 to 8000 nM
p53 Y220C
  AC50: < 750 nM
  Emax: 80 to 90%
H1299 p53 Y220C
  IC50: < 750 nM
NUGC3 p53 Y220C
  IC50: < 750 nM
[1]
  Kd: < 10 nM

## COc1ccc(C(=O)NCC2(O)CC2)cc1NCC#Cc1cc2c(N[C@@H]3CCN(C)C[C@@H]3F)cccn2c1SC(F)(F)F [Example 417]
H1299 p53 R273H
  IC50: ≥ 10000 nM
p53 Y220C
  AC50: < 750 nM
  Emax: > 90%
H1299 p53 Y220C
  IC50: < 750 nM
NUGC3 p53 Y220C
  IC50: < 750 nM
[1]
  Kd: < 10 nM

## CN1CC[C@@H](Nc2cccn3c(SC(F)(F)F)c(C#CCNc4ccc(S(C)(=O)=O)cc4)cc23)[C@@H](F)C1 [Example 418]
H1299 p53 R273H
  IC50: ≥ 10000 nM
p53 Y220C
  AC50: < 750 nM
  Emax: > 90%
H1299 p53 Y220C
  IC50: < 750 nM
NUGC3 p53 Y220C
  IC50: < 750 nM
[1]
  Kd: < 10 nM

## COc1cc(C(=O)NCC2(O)CC2)ccc1NCC#Cc1cc2c(N[C@@H]3CCN(C)C[C@@H]3F)cccn2c1SC(F)(F)F [Example 419, 4-{[3-(8-{[(3S,4R)-3-fluoro-1-methylpiperidin-4-yl]amino}-3-[(trifluoromethyl)sulfanyl]indolizin-2-yl)prop-2-yn-1-yl]amino}-N-[(1-hydroxycyclopropyl)methyl]-3-methoxybenzamide]
H1299 p53 R273H
  IC50: 5000 to 8000 nM
p53 Y220C
  AC50: < 750 nM
  Emax: > 90%
H1299 p53 Y220C
  IC50: < 750 nM
NUGC3 p53 Y220C
  IC50: < 750 nM
[1]
  Kd: < 10 nM

## CN1CC[C@@H](Nc2cccn3c(SC(F)(F)F)c(C#CCNc4ccc(P(C)(C)=O)nc4)cc23)[C@@H](F)C1 [Example 420, 2-(3-{[6-(dimethylphosphoryl)pyridin-3-yl]amino}prop-1-yn-1-yl)-N-[(3S,4R)-3-fluoro-1-methylpiperidin-4-yl]-3-[(trifluoromethyl)sulfanyl]indolizin-8-amine]
H1299 p53 R273H
  IC50: ≥ 10000 nM
p53 Y220C
  AC50: < 750 nM
  Emax: 80 to 90%
H1299 p53 Y220C
  IC50: < 750 nM
NUGC3 p53 Y220C
  IC50: < 750 nM
[1]
  Kd: < 10 nM

## COc1cc(C(=O)NC[C@@H](O)CO)ccc1NCC#Cc1cc2c(N[C@@H]3CCN(C)C[C@@H]3F)cccn2c1SC(F)(F)F [Example 421]
H1299 p53 R273H
  IC50: ≥ 10000 nM
p53 Y220C
  AC50: < 750 nM
  Emax: > 90%
H1299 p53 Y220C
  IC50: < 750 nM
NUGC3 p53 Y220C
  IC50: < 750 nM
[1]
  Kd: < 10 nM

## COc1cc(C(=O)NC[C@H](O)CO)ccc1NCC#Cc1cc2c(N[C@@H]3CCN(C)C[C@@H]3F)cccn2c1SC(F)(F)F [Example 422]
H1299 p53 R273H
  IC50: ≥ 10000 nM
p53 Y220C
  AC50: < 750 nM
  Emax: > 90%
H1299 p53 Y220C
  IC50: < 750 nM
NUGC3 p53 Y220C
  IC50: < 750 nM
[1]
  Kd: < 10 nM

## COc1cc([S@@+](C)[O-])ccc1NCC#Cc1cc2c(N[C@@H]3CCN(C)C[C@@H]3F)cccn2c1SC(F)(F)F [Example 423]
H1299 p53 R273H
  IC50: 8000 to 10000 nM
p53 Y220C
  AC50: < 750 nM
  Emax: > 90%
H1299 p53 Y220C
  IC50: < 750 nM
NUGC3 p53 Y220C
  IC50: < 750 nM
[1]
  Kd: < 10 nM

## COc1ccc(C(=O)NCC(C)(C)O)cc1NCC#Cc1cc2c(N[C@@H]3CCN(C)C[C@@H]3F)cccn2c1SC(F)(F)F [Example 424]
H1299 p53 R273H
  IC50: ≥ 10000 nM
p53 Y220C
  AC50: < 750 nM
  Emax: > 90%
H1299 p53 Y220C
  IC50: < 750 nM
NUGC3 p53 Y220C
  IC50: < 750 nM
[1]
  Kd: < 10 nM

## CN1CC[C@@H](Nc2cccn3c(SC(F)(F)F)c(C#CCNc4ccc(C(=O)N[C@H]5C[C@H](O)C5)cc4)cc23)[C@@H](F)C1 [Example 426]
H1299 p53 R273H
  IC50: 8000 to 10000 nM
p53 Y220C
  AC50: < 750 nM
  Emax: > 90%
H1299 p53 Y220C
  IC50: < 750 nM
NUGC3 p53 Y220C
  IC50: < 750 nM
[1]
  Kd: < 10 nM

## CN1CC[C@@H](Nc2cccn3c(SC(F)(F)F)c(C#CCNc4ccc(C(=O)NCC5(O)CC5)cc4)cc23)[C@@H](F)C1 [Example 427]
H1299 p53 R273H
  IC50: ≥ 10000 nM
p53 Y220C
  AC50: < 750 nM
  Emax: > 90%
H1299 p53 Y220C
  IC50: < 750 nM
NUGC3 p53 Y220C
  IC50: < 750 nM
[1]
  Kd: < 10 nM

## CN1CC[C@@H](Nc2cccn3c(SC(F)(F)F)c(C#CCNc4ccc(P(C)(C)=O)cn4)cc23)[C@@H](F)C1 [Example 428, 2-(3-{[5-(dimethylphosphoryl)pyridin-2-yl]amino}prop-1-yn-1-yl)-N-[(3S,4R)-3-fluoro-1-methylpiperidin-4-yl]-3-[(trifluoromethyl)sulfanyl]indolizin-8-amine]
H1299 p53 R273H
  IC50: ≥ 10000 nM
p53 Y220C
  AC50: < 750 nM
  Emax: 80 to 90%
H1299 p53 Y220C
  IC50: < 750 nM
NUGC3 p53 Y220C
  IC50: < 750 nM
[1]
  Kd: < 10 nM

## CN1CC[C@@H](Nc2cccn3c(SC(F)(F)F)c(C#CCNc4ccc(P(C)(C)=O)nn4)cc23)[C@@H](F)C1 [Example 429, 2-(3-{[6-(dimethylphosphoryl)pyridazin-3-yl]amino}prop-1-yn-1-yl)-N-[(3S,4R)-3-fluoro-1-methylpiperidin-4-yl]-3-[(trifluoromethyl)sulfanyl]indolizin-8-amine]
H1299 p53 R273H
  IC50: ≥ 10000 nM
p53 Y220C
  AC50: < 750 nM
  Emax: 80 to 90%
H1299 p53 Y220C
  IC50: < 750 nM
NUGC3 p53 Y220C
  IC50: < 750 nM
[1]
  Kd: < 10 nM

## CN1CC[C@@H](Nc2cccn3c(SC(F)(F)F)c(C#CCNc4ccc(C(=O)NCCS(C)(=O)=O)cc4)cc23)[C@@H](F)C1 [Example 430, 4-{[3-(8-{[(3S,4R)-3-fluoro-1-methylpiperidin-4-yl]amino}-3-[(trifluoromethyl)sulfanyl]indolizin-2-yl)prop-2-yn-1-yl]amino}-N-(2-methanesulfonylethyl)benzamide]
H1299 p53 R273H
  IC50: ≥ 10000 nM
p53 Y220C
  AC50: < 750 nM
  Emax: > 90%
H1299 p53 Y220C
  IC50: < 750 nM
NUGC3 p53 Y220C
  IC50: < 750 nM
[1]
  Kd: < 10 nM

## C[C@H](O)CNC(=O)c1ccc(NCC#Cc2cc3c(N[C@@H]4CCN(C)C[C@@H]4F)cccn3c2SC(F)(F)F)cc1 [Example 431]
H1299 p53 R273H
  IC50: ≥ 10000 nM
p53 Y220C
  AC50: < 750 nM
  Emax: > 90%
H1299 p53 Y220C
  IC50: < 750 nM
NUGC3 p53 Y220C
  IC50: < 750 nM
[1]
  Kd: < 10 nM

## CNC(=O)c1ccc(NCC#Cc2cc3c(N[C@@H]4CCN(C)C[C@@H]4F)cccn3c2SC(F)(F)F)c(C#N)c1 [Example 432, 3-cyano-4-{[3-(8-{[(3S,4R)-3-fluoro-1-methylpiperidin-4-yl]amino}-3-[(trifluoromethyl)sulfanyl]indolizin-2-yl)prop-2-yn-1-yl]amino}-N-methylbenzamide]
H1299 p53 R273H
  IC50: ≥ 10000 nM
p53 Y220C
  AC50: < 750 nM
  Emax: > 90%
H1299 p53 Y220C
  IC50: < 750 nM
NUGC3 p53 Y220C
  IC50: < 750 nM
[1]
  Kd: < 10 nM

## CNC(=O)c1ccc(NCC#Cc2cc3c(N[C@@H]4CCN(C)C[C@@H]4F)cccn3c2SC(F)(F)F)c(OC)n1 [Example 433, 5-{[3-(8-{[(3S,4R)-3-fluoro-1-methylpiperidin-4-yl]amino}-3-[(trifluoromethyl)sulfanyl]indolizin-2-yl)prop-2-yn-1-yl]amino}-6-methoxy-N-methylpyridine-2-carboxamide]
H1299 p53 R273H
  IC50: 5000 to 8000 nM
p53 Y220C
  AC50: < 750 nM
  Emax: > 90%
H1299 p53 Y220C
  IC50: < 750 nM
NUGC3 p53 Y220C
  IC50: < 750 nM
[1]
  Kd: < 10 nM

Reference: patent publication US20260374766A1, “METHODS FOR TREATING CANCER” (Antares Therapeutics, Inc., priority 2022, published 2026)
